Source: patent US7582627B2, “3-aminoquinazolin-2,4-dione antibacterial agents” (Warner-Lambert Company, priority 2000, dated 2009)
Where a name gives a salt, the structure may show the parent alone. Read-outs that look alike come from different tables or passages of the source.

Columns and labels:
E. faecalis RB1 = test: Antibacterial assay, microtitration MIC; format: cell-based; conditions: Enterococcus faecalis
Experimental: (§1) The compounds of the present invention are tested against an assortment of Gram negative and Gram positive organisms using standard microtitration techniques (Cohen et al., Antimicrob. Agents Chemother., 1985; 28:766; Heifetz et al., Antimicrob. Agents Chemother., 1974; 6:124). The results of the evaluation of representative 3-aminoquinazolin-2,4-diones of Formula I are shown in Table 2 and compared to two 3-hydroxyquinazolin-2,4-diones.

S. pyogenes C203 = test: Antibacterial assay, microtitration MIC; format: cell-based; conditions: Streptococcus pyogenes
Experimental: as §1

E. coli B90 = test: Antibacterial assay, microtitration MIC; format: cell-based; conditions: Escherichia coli
Experimental: as §1

E. coli Tol C = test: Antibacterial assay, microtitration MIC; format: cell-based; conditions: Escherichia coli, read-out: Minimum Inhibitory Concentrations E. coli Tol C
Experimental: as §1

S. aureus 29213 = test: Antibacterial assay, microtitration MIC; format: cell-based
Experimental: as §1

E. coli MC4100 = test: Antibacterial assay, microtitration MIC; format: cell-based; conditions: Escherichia coli
Experimental: as §1

E. coli gyrase = biological target: T1, E. coli gyrase (Escherichia coli, UniProt P0AES4+P0AES6); test: DNA gyrase supercoiling inhibition assay; format: biochemical
T1 construct: purchased Lucent, Ltd., Leicester, UK
Experimental: The effects of invention compounds on the activity of DNA gyrase is determined in the supercoiling inhibition assay, following reaction conditions recommended by the enzyme supplier (Lucent, Ltd., Leicester, UK). Reactions are performed in buffer G (35 mM Tris-HCl (pH 7.5), 24 mM KCl, 4 mM MgCl2, 2 mM DTT, 1.8 mM spermidine, 1 mM ATP, 0.1 mg/mL bovine serum albumin). Relaxed plasmid pBR322 (0.25 μg, Lucent, Ltd., Leicester, UK) is reacted with 1 U E. coli gyrase (Lucent, Ltd., Leicester, UK), in the absence or presence of test compounds, for 30 minutes at 37° C. Reactions are stopped by the addition of SDS and proteinase K to respective final concentrations of 1% and 0.5 mg/mL. After an additional 30 minutes at 37° C., one-tenth volume of 10× loading buffer (0.3% bromophenol blue, 16% Ficoll, 10 mM Na2HPO4) is added, and reactions are loaded onto agarose gels and electrophoresed. The concentration of representative invention compounds of Formula I inhibiting 50% of the supercoiling activity of DNA gyrase is given as an IC50 and recorded in Table 2.

S. aureus 2554 = test: Cross resistance antibacterial assay, microtitration MIC; format: cell-based; conditions: Staphylococcus aureus, 2554, read-out: Minimum Inhibitory Concentrations S. aureus 2554
Experimental: (§2) The compounds of the present invention are tested against an assortment of ciprofloxacin resistant E. coli and S. aureus organisms described below using standard microtitration techniques (Cohen, et al., Antimicrob. Agents Chemother., 1985; 28:766; Heifetz, et al., Antimicrob. Agents Chemother., 1974; 6:124).

S. aureus 2552 = test: as above; format: cell-based; conditions: Staphylococcus aureus, read-out: Minimum Inhibitory Concentrations S. aureus 2552
Experimental: as §2

S. aureus 2558 = test: as above; format: cell-based; conditions: Staphylococcus aureus, 2558, read-out: Minimum Inhibitory Concentrations S. aureus 2558
Experimental: as §2

E. coli LLM1 = test: as above; format: cell-based; conditions: Escherichia coli, LLM1, read-out: Minimum Inhibitory Concentrations E. coli LLM1
Experimental: as §2

E. coli JL4 = test: as above; format: cell-based; conditions: Escherichia coli, Tol C pump deficient strain with E. coli W3110 background, read-out: Minimum Inhibitory Concentrations E. coli JL4
Experimental: as §2

S. aureus UC-76 = test: as above; format: cell-based; conditions: Staphylococcus aureus, UC76; typical sensitive laboratory strain (wild type); read-out: Minimum Inhibitory Concentrations S. aureus UC-76
Experimental: as §2

S. pyogenes = test: In vivo median protective dose, lethal systemic infection; conditions: mice
Experimental: (§3) The in vivo activity of invention compounds is evaluated according to the procedure of Miller et al., Proc. Soc. Exp. Biol. Med, 1944; 57:261. The median protective dose (PD50) is determined in mice given lethal systemic infections. Two 3-aminoquinazolin-2,4-diones of the invention are compared to a […], and the results are presented in Table 3. The results establish the unexpected superiority of the 3-amino invention compounds compared to similar 3-hydroxy analogs.

E. coli = test: as above; conditions: mice
Experimental: as §3

T1 sequence (P0AES4 whole entry, one chain of several): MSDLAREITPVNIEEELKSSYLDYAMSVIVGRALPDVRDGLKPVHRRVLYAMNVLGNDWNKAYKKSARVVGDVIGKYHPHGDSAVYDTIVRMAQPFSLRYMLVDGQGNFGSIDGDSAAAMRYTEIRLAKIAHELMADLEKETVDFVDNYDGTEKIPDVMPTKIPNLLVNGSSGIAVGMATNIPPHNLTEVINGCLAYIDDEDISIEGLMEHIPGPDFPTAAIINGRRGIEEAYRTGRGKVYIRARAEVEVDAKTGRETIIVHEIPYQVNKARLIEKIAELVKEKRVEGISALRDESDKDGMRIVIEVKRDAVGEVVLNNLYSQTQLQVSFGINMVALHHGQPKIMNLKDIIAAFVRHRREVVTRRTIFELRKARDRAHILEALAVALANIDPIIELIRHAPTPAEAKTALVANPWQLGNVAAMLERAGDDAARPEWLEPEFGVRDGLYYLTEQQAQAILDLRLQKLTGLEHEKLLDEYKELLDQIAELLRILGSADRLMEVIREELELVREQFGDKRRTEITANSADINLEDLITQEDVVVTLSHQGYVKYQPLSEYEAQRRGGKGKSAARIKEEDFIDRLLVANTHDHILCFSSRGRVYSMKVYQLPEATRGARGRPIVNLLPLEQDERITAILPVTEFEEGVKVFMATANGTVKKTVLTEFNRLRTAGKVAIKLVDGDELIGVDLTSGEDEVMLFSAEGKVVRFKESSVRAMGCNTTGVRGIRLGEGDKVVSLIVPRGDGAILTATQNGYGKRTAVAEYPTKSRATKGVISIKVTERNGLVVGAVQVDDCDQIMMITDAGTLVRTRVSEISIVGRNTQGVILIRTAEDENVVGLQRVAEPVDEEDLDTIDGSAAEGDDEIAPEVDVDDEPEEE

Row | Structure (SMILES) | MIC (E. coli Tol C) [µg/mL] | MIC (S. aureus 2554) [µg/mL] | MIC (S. aureus 2552) [µg/mL] | MIC (S. aureus 2558) [µg/mL] | MIC (E. coli LLM1) [µg/mL] | MIC (E. coli JL4) [µg/mL] | MIC (S. aureus UC-76) [µg/mL] | PD50 (S. pyogenes) [mg/kg] | other results
1 | Cl.Nn1c(=O)c2cc(F)c(N3CCC(CO)C3)c(Cl)c2n(C2CC2)c1=O (stereo not drawn) [Compound 12, 3-Amino-7-(3-hydroxymethylpyrrolidin-1-yl)-8-chloro-1-cyclopropyl-6-fluoro-1H-quinazoline-2,4-dione hydrochloride] | 0.13 | 1 | 1 | 2 | 0.25 | 0.06 | 1 | – | melting point: 78 to 80 °C; MIC (E. faecalis RB1; RB1, Gram positive, read-out: Minimum Inhibitory Concentrations E. faecalis RB1): 4 µg/mL; MIC (S. pyogenes C203; C203, Gram positive, read-out: Minimum Inhibitory Concentrations S. pyogenes C203): 8 µg/mL; MIC (E. coli B90; B90, Gram negative, read-out: Minimum Inhibitory Concentrations E. coli B90): 0.25 µg/mL; MIC (S. aureus 29213; Staphylococcus aureus, 29213, Gram positive, read-out: Minimum Inhibitory Concentrations S. aureus 29213): 2 µg/mL; MIC (E. coli MC4100; MC4100, Gram negative, read-out: Minimum Inhibitory Concentrations E. coli MC4100): 16 µg/mL; IC50 (E. coli gyrase): 2100 nM
2 | NCC1CCN(c2c(F)cc3c(=O)n(N)c(=O)n(C4CC4)c3c2Cl)C1 (stereo not drawn) [Compound 1, 3-Amino-7-(3-aminomethylpyrrolidin-1-yl)-8-chloro-1-cyclopropyl-6-fluoro-1H-quinazoline-2,4-dione hydrochloride] | 0.25 | 1 | 1 | 1 | 0.5 | 0.13 | 0.13 | 12 | MIC (E. faecalis RB1; RB1, read-out: Minimum Inhibitory Concentrations E. faecalis RB1): 1 µg/mL; MIC (S. pyogenes C203; C203, read-out: Minimum Inhibitory Concentrations S. pyogenes C203): 0.13 µg/mL; MIC (E. coli B90; B90, read-out: Minimum Inhibitory Concentrations E. coli B90): 1 µg/mL; MIC (S. aureus 29213; Staphylococcus aureus, 29213, read-out: Minimum Inhibitory Concentrations S. aureus 29213): 0.5 µg/mL; MIC (E. coli MC4100; MC4100, read-out: Minimum Inhibitory Concentrations E. coli MC4100): 2 µg/mL; IC50 (E. coli gyrase; supercoiling of relaxed pBR322, 30 minutes at 37° C., read-out: E. coli gyrase IC50): 1000 nM
3 | N[C@@H]1[C@H]2CN(c3cc4c(cc3F)c(=O)n(O)c(=O)n4C3CC3)C[C@@H]12 [drawing 286, reference compound] | – | – | – | – | – | – | – | >100 | –
4 | Cl.NC1CCN(c2c(F)cc3c(=O)n(N)c(=O)n(C4CC4)c3c2Cl)C1 (stereo not drawn) [Compound 10, 3-Amino-7-(3-aminopyrrolidin-1-yl)-8-chloro-1-cyclopropyl-6-fluoro-1H-quinazoline-2,4-dione hydrochloride] | – | – | – | – | – | – | – | – | PD50 (E. coli): 72 mg/kg
5 | CC1(CN)CCN(c2c(F)cc3c(=O)n(N)c(=O)n(C4CC4)c3c2Cl)C1 (stereo not drawn) [Compound 3, 3-Amino-7-[3-(aminomethyl)-3-methylpyrrolidin-1-yl]-8-chloro-1-cyclopropyl-6-fluoro-1H-quinazoline-2,4-dione hydrochloride] | – | 2 | 2 | 4 | 1 | 0.5 | 1 | – | –
